Experimental data as given in paper PMC3285636, “Identification by Virtual Screening and In Vitro Testing of Human DOPA Decarboxylase Inhibitors” (PLoS ONE, 2012).
Entries after “also recorded” stand apart in the source; their conditions may differ. Where two headings read alike, the source gives them in different places. Marks after values point to notes of the source that are not given here.

Assays:
human DDC [1] = target: T1, human DDC (Homo sapiens, UniProt P20711); assay: Enzyme-ligand equilibrium dissociation constant from visible CD signal changes of DDC; type: binding; settings: change of 420 nm or 335 nm CD band, 100 mM potassium phosphate pH 7.4
T1 construct: made in house
T1 sequence (P20711 1-480): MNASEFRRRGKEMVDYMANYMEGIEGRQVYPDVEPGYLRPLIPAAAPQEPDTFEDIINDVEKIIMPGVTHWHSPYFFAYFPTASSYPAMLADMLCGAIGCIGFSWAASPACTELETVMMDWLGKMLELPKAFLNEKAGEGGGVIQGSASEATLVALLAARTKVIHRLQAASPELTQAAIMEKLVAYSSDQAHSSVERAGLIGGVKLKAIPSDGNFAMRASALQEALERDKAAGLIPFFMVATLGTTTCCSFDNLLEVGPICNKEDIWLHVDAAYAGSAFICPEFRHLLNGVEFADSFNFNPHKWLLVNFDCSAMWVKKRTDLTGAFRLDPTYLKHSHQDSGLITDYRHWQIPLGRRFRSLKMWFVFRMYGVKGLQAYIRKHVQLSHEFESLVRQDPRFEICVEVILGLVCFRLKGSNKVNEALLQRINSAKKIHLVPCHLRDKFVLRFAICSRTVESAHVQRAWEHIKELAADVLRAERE
Protocol: The equilibrium dissociation constant for each tested compound from DDC was determined by monitoring the decrease in the 420 nm CD signal of DDC (7 µM) in the presence of various ligand concentrations in 100 mM potassium phosphate buffer, pH 7.4. In any case, the maximun DMSO concentration in the mixture was kept lower than 1% (v/v). The KD values were obtained from the fitting of the data to the equation [drawing 3] where [E]t and [L]t represent the total concentrations of DDC dimer and ligand, respectively, Y refers to the visible CD signal change at 420 nm at the ligand concentration [L], and Ymax refers to the CD signal when all enzyme molecules are complexed with the ligand. CD measurements were performed with a Jasco J-710 spectropolarimeter using quartz cuvettes with 1 cm path length.

human DDC [2] = target: T1, human DDC; assay: Assay of the inhibitory activity: spectrophotometric measurement of dopamine production by DDC; type: biochemical; settings: for IC50: 0.1 mM L-Dopa, pH 7.4, 25°C, 9 concentrations in duplicate; for BE (binding efficiency): binding energy per unit of mass, from Ki and molecular weight in kDa; for Inhibition profile: type of inhibition from Lineweaver–Burk plots; for Ki′: mixed or noncompetitive inhibition
Protocol: DDC activity was determined by measuring the production of dopamine with a spectrophotometric assay outlined by Sherald et al. and modified by Charteris and John. The reaction was carried out in 0.1 M potassium phosphate buffer pH 7.4 at 25°C for 1 min and stopped by inactivation of the enzyme at 100°C for 90 sec. The inhibitory assay was performed by measuring the decarboxylase activity of DDC with 50 nM enzyme, 0.1 mM L-Dopa, and 10 µM PLP in the presence and in the absence of a fixed amount of each compound. Various amounts of dimethyl sulphoxyde (DMSO) were necessary to solubilize the compounds in 100 mM potassium phosphate buffer, pH 7.4. […] Compounds were evaluated at 9 concentrations, and each in duplicate. IC50 values were derived by nolinear regression analysis. The related inhibition type of the compounds on human DDC was identified from Lineweaver–Burk plots, and Ki and/or Ki′ values for the inhibitors tested were calculated by the software Origin 7.0.

[3] = 50 nM enzyme, 10 µM PLP, read-out: IC50
[4] = 50 nM enzyme, L-Dopa, 10 µM PLP, 0.1 M potassium phosphate pH 7.4, 25°C, from Lineweaver–Burk plots, read-out: Ki
[5] = at a concentration in which solubility of the compound was maximum
[6] = 0.1 M potassium phosphate pH 7.4, 25°C, from Lineweaver–Burk plots
[7] = Ki, competitive inhibition, Table 4, third screening

SMILES | IC50 (human DDC [2]; [3]) | Ki (human DDC [2]; [4]) | Inhibition of DDC activity (human DDC [2]; [5]) | BE (binding efficiency) (human DDC [2]) | Inhibition profile (human DDC [2]) | Ki′ (human DDC [2]; [6]) | also measured
O=C(O)c1cccc(NS(=O)(=O)c2ccc3nnn(O)c3c2)c1 [Compound 1] | 570 ± 66 µM | 106 ± 7 µM | ≥ 70% | 11.9 | competitive inhibition |  | Kd (human DDC [1]): 240 ± 68 µM
O=S(=O)(c1ccc2nnn(O)c2c1)N1CCCCC1 [Compound 2] | 1500 ± 220 µM | 390 ± 30 µM | ≥ 70% | 12.1 | competitive inhibition |  | Kd (human DDC [1]): 516 ± 126 µM
CCOc1cc(-c2ccc(O)c(O)c2)cc(=O)c2c(C)oc(C)c12 [Compound 6] |  |  | do not inhibit DDC activity |  |  |  | 
Cc1cccc(NC(=O)COC(=O)c2[nH]c(=O)[nH]c(=O)c2N)c1C [Compound 8] |  |  | do not inhibit DDC activity |  |  |  | 
O=C1C(=Cc2ccc(O)c(O)c2)C(=O)c2ccccc21 [Compound 10] | 12.8 ± 0.4 µM | 6.03 ± 0.55 µM | ≥ 70% |  | mixed inhibition | 23.1 ± 1.1 µM | 
Oc1cccc(/C=N/n2c(S)nnc2-c2ccc(Cl)cc2Cl)c1O [Compound 11] | 27.3 ± 1.6 µM | 10.7 ± 2.4 µM | ≥ 70% | 13.0 | competitive inhibition |  | Kd (human DDC [1]): 16.1 ± 2.1 µM
Nc1c(S(=O)(=O)c2ccccc2)c2nc3ccccc3nc2n1/N=C/c1ccc(O)c(O)c1 [Compound 12] |  |  | ~55% |  | noncompetitive inhibition | 19.4±1.4^b µM | 
CC(C)C(NC(=O)Cc1n[nH]c(=O)c2ccccc12)c1nc2ccccc2[nH]1 (stereo not shown) [Compound 13] |  |  | do not inhibit DDC activity |  |  |  | 
O=C1Nc2ccc(S(=O)(=O)N3CCCCC3)c3cccc1c23 [Compound 15] |  |  | do not inhibit DDC activity |  |  |  | 
O=C(O)c1ccccc1NS(=O)(=O)c1ccc2[nH]c(=O)[nH]c2c1 [Compound 16] |  | 59.8 ± 0.3 µM |  | 12.7 | competitive inhibitors |  | 
O=C(Nc1ccccc1)c1ccccc1NS(=O)(=O)c1ccc2[nH]c(=O)[nH]c2c1 [Compound 17] | 16.8 ± 1.7 µM | 4.4 ± 1.4 µM |  | 13.1 | competitive inhibitors |  | Kd (human DDC [1]): 17.5 ± 5.1 µM; increase of affinity (human DDC [2]; compared with compound 5): about 13 fold
Oc1ccc(/C=N/n2c(S)nnc2-c2ccc(Cl)cc2Cl)cc1 [Compound 18] |  | 63.2 ± 3.1 µM |  | 11.5 | competitive inhibitors |  | 
Oc1ccccc1/C=N/n1c(S)nnc1-c1ccc(Cl)cc1Cl [Compound 19] |  |  |  |  |  |  | DDC inhibitory activity in words (human DDC [2]; structure-activity discussion): poorly active
Oc1cccc(/C=N/n2c(S)nnc2-c2ccc(Cl)cc2Cl)c1 [Compound 20] |  | 36.8 ± 4.2 µM |  | 12.1 | competitive inhibitors |  | Kd (human DDC [1]): 28.2 ± 3.2 µM
Oc1ccc(/C=N/n2c(S)nnc2-c2ccc(Cl)cc2)cc1O [Compound 21] | 6.3 ± 0.9 µM | 2.3 ± 0.4 µM |  | 16.3 | competitive inhibitors |  | Kd (human DDC [1]): 2.5 ± 0.7 µM
Oc1ccc(/C=N/n2c(S)nnc2-c2ccccc2)c(O)c1O [Compound 22] | 6.7 ± 0.9 µM | 15.1 ± 0.1 µM |  |  | mixed mode | 46.7 ± 0.5 µM | 
Oc1cccc(/C=N/n2c(S)nnc2-c2ccccc2)c1O [Compound 23] |  | < 10 µM |  | 16.8 | competitive inhibitors |  | Kd (human DDC [1]): 4.7 ± 0.5 µM; IC50 (human DDC [2]; 50 nM enzyme, 10 µM PLP): 16.6 ± 0.3 µM; Ki (human DDC [2]; Ki, 50 nM enzyme, L-Dopa, 10 µM PLP, 0.1 M potassium phosphate pH 7.4, 25°C, from Lineweaver–Burk plots): 5.7 ± 0.1 µM
Oc1cccc(/C=N/n2c(S)nnc2-c2ccc(Cl)cc2)c1 [Compound 24] | 77.1 ± 2.4 µM | 120 ± 14 µM |  | 11.9 | competitive inhibitors |  | 
Oc1ccc(C=Nn2c(S)nnc2-c2ccc(Cl)cc2)c(O)c1 [Compound 26] |  |  |  | 12.1 | noncompetitive inhibitors; also recorded: Nonconmpetitive | 65.2±−4.1^b µM | 

Continued, in another order:

IC50 (human DDC [2]; [3]) | Ki (human DDC [2]; [4]) | Inhibition of DDC activity (human DDC [2]; [5]) | BE (binding efficiency) (human DDC [2]) | Inhibition profile (human DDC [2]) | Ki′ (human DDC [2]; [6]) | SMILES | also measured
15.2 ± 1.3 µM | 3.7 ± 0.2 µM |  | 15.7 | competitive inhibitors |  | Oc1ccc(/C=N/n2c(S)nnc2-c2ccccc2Cl)cc1O [Compound 25] | Kd (human DDC [1]): 2.4 ± 0.1 µM
 | 24.8 ± 1.2 µM |  |  | mixed mode | 43.1 ± 1.9 µM | Oc1ccc(C=Nn2c(S)nnc2-c2ccccc2)c(O)c1 [Compound 27] | 
 | 44.4 ± 2.3 µM |  |  | mixed mode | 208 ± 3 µM | Oc1ccccc1/C=N/n1c(S)nnc1-c1ccccc1Cl [Compound 29] | 
 | 4.5 ± 0.3 µM |  |  | mixed mode | 17 ± 0.2 µM | Oc1c(Br)cc(Br)cc1/C=N/n1c(S)nnc1-c1ccc(Cl)cc1Cl [Compound 32] | 
 | 16.5 ± 0.8 µM |  |  | mixed mode | 325 ± 39 µM | Oc1ccccc1/C=N/n1c(S)nnc1-c1ccc(F)cc1 [Compound 33] | 
29 ± 2 µM |  |  |  | noncompetitive inhibitors | 127±16^b µM | Oc1ccc(/C=N/n2c(S)nnc2-c2ccc(Cl)cc2Cl)c(O)c1 [Compound 35] | 
3.5 ± 0.2 µM |  |  | 19,4 |  |  | Oc1ccc(/C=N/n2c(S)nnc2-c2ccco2)cc1O [Compound 40] | Ki (human DDC [2]; [7]): 1.4 ± 0.1 µM
1.7 ± 0.2 µM |  |  | 18,4 |  |  | COc1ccc(-c2nnc(S)n2/N=C/c2ccc(O)c(O)c2)cc1 [Compound 44] | Ki (human DDC [2]; [7]): 0.5 ± 0.1 µM
3.5 ± 0.3 µM |  |  | 17,4 |  |  | Oc1ccc(/C=N/n2c(S)nnc2COc2ccccc2)cc1O [Compound 46] | Ki (human DDC [2]; competitive inhibition, Table 4, third screening, read-out: Ki): 1.1 ± 0.1 µM
> 200 µM |  |  |  |  |  | COc1ccccc1-c1nnc(S)n1/N=C/c1ccc(O)c(O)c1 [Compound 47] | Inhibition of DDC activity (human DDC [2]; at 200 µM (the concentration of its maximum solubility)): does not inhibit DDC activity
